Reference: ChEMBL document CHEMBL4507304, “Data for DCP probe TP-021” (2021)

Experiments:
[1] = system: Tyrosine-protein kinase ABL1 (Homo sapiens), P00519 [E255K]; details: Compound concentration 1000.0 nM
[2] = molecular target: Tyrosine-protein kinase ABL1 (Homo sapiens) (UniProt P00519); details: Compound concentration 1000.0 nM
[3] = molecular target: Atypical kinase COQ8B, mitochondrial (Homo sapiens) (UniProt Q96D53); details: Compound concentration 1000.0 nM
[4] = molecular target: 5'-AMP-activated protein kinase catalytic subunit alpha-2 (Homo sapiens) (UniProt P54646); details: Compound concentration 1000.0 nM
[5] = molecular target: Tyrosine-protein kinase receptor UFO (Homo sapiens) (UniProt P30530); details: Compound concentration 1000.0 nM
[6] = molecular target: Tyrosine-protein kinase BTK (Homo sapiens) (UniProt Q06187); details: Compound concentration 1000.0 nM
[7] = molecular target: Calcium/calmodulin-dependent protein kinase type 1B (Homo sapiens) (UniProt Q6P2M8); details: Compound concentration 1000.0 nM
[8] = molecular target: Calcium/calmodulin-dependent protein kinase type II subunit delta (Homo sapiens) (UniProt Q13557); details: Compound concentration 1000.0 nM
[9] = molecular target: Citron Rho-interacting kinase (Homo sapiens) (UniProt O14578); details: Compound concentration 1000.0 nM
[10] = system: Epidermal growth factor receptor (Homo sapiens), P00533 [L858R]; details: Compound concentration 1000.0 nM
[11] = molecular target: Ephrin type-B receptor 2 (Homo sapiens) (UniProt P29323); details: Compound concentration 1000.0 nM
[12] = molecular target: Ephrin type-B receptor 3 (Homo sapiens) (UniProt P54753); details: Compound concentration 1000.0 nM
[13] = molecular target: Fibroblast growth factor receptor 1 (Homo sapiens) (UniProt P11362); details: Compound concentration 1000.0 nM
[14] = system: Receptor-type tyrosine-protein kinase FLT3 (Homo sapiens), P36888 [UNDEFINED MUTATION]; details: Compound concentration 1000.0 nM
[15] = system: Receptor-type tyrosine-protein kinase FLT3 (Homo sapiens), P36888 [UNDEFINED MUTATION]; details: Compound concentration 1000.0 nM; remark: listed apart in the source
[16] = molecular target: Tyrosine-protein kinase HCK (Homo sapiens) (UniProt P08631); details: Compound concentration 1000.0 nM
[17] = system: Mast/stem cell growth factor receptor Kit (Homo sapiens), P10721 [D816H]; details: Compound concentration 1000.0 nM
[18] = system: Mast/stem cell growth factor receptor Kit (Homo sapiens), P10721 [V559D,T670I]; details: Compound concentration 1000.0 nM
[19] = system: Mast/stem cell growth factor receptor Kit (Homo sapiens), P10721 [V559D,V654A]; details: Compound concentration 1000.0 nM
[20] = molecular target: Dual specificity mitogen-activated protein kinase kinase 6 (Homo sapiens) (UniProt P52564); details: Compound concentration 1000.0 nM
[21] = molecular target: Macrophage-stimulating protein receptor (Homo sapiens) (UniProt Q04912); details: Compound concentration 1000.0 nM
[22] = molecular target: Serine/threonine-protein kinase PAK 2 (Homo sapiens) (UniProt Q13177); details: Compound concentration 1000.0 nM
[23] = molecular target: Phosphorylase b kinase regulatory subunit alpha, liver isoform (Homo sapiens) (UniProt P46019); details: Compound concentration 1000.0 nM
[24] = molecular target: Phosphatidylinositol 4-phosphate 3-kinase C2 domain-containing subunit beta (Homo sapiens) (UniProt O00750); details: Compound concentration 1000.0 nM
[25] = molecular target: Phosphatidylinositol 4,5-bisphosphate 3-kinase catalytic subunit alpha isoform (Homo sapiens) (UniProt P42336); details: Compound concentration 1000.0 nM
[26] = molecular target: cAMP-dependent protein kinase catalytic subunit alpha (Homo sapiens) (UniProt P17612); details: Compound concentration 1000.0 nM
[27] = molecular target: Serine/threonine-protein kinase PLK4 (Homo sapiens) (UniProt O00444); details: Compound concentration 1000.0 nM
[28] = molecular target: Serine/threonine-protein kinase PRP4 homolog (Homo sapiens) (UniProt Q13523); details: Compound concentration 1000.0 nM
[29] = molecular target: RAF proto-oncogene serine/threonine-protein kinase (Homo sapiens) (UniProt P04049); details: Compound concentration 1000.0 nM
[30] = molecular target: Serine/threonine-protein kinase RIO2 (Homo sapiens) (UniProt Q9BVS4); details: Compound concentration 1000.0 nM
[31] = molecular target: Ribosomal protein S6 kinase alpha-6 (Homo sapiens) (UniProt Q9UK32); details: Compound concentration 1000.0 nM
[32] = molecular target: Ribosomal protein S6 kinase beta-1 (Homo sapiens) (UniProt P23443); details: Compound concentration 1000.0 nM
[33] = molecular target: Serine/threonine-protein kinase SBK1 (Homo sapiens) (UniProt Q52WX2); details: Compound concentration 1000.0 nM
[34] = molecular target: Tyrosine-protein kinase SYK (Homo sapiens) (UniProt P43405); details: Compound concentration 1000.0 nM
[35] = molecular target: TGF-beta receptor type-1 (Homo sapiens) (UniProt P36897); details: Compound concentration 1000.0 nM
[36] = molecular target: Serine/threonine-protein kinase tousled-like 2 (Homo sapiens) (UniProt Q86UE8); details: Compound concentration 1000.0 nM
[37] = molecular target: Activated CDC42 kinase 1 (Homo sapiens) (UniProt Q07912); details: Compound concentration 1000.0 nM
[38] = molecular target: Serine/threonine-protein kinase TNNI3K (Homo sapiens) (UniProt Q59H18); details: Compound concentration 1000.0 nM
[39] = molecular target: Serine/threonine-protein kinase ULK2 (Homo sapiens) (UniProt Q8IYT8); details: Compound concentration 1000.0 nM
[40] = molecular target: Mu-type opioid receptor (Homo sapiens) (UniProt P35372); details: Compound concentration 10.0 uM
[41] = molecular target: Alpha-2B adrenergic receptor (Homo sapiens) (UniProt P18089); details: Compound concentration 10.0 uM
[42] = molecular target: GABA-A receptor; anion channel (Rattus norvegicus) (UniProt O09028+P15431+P18506+P18508+P19969+P20236+P23574+P23576+P28471+P28473+P30191+P62813+P63079+P63138+Q91ZM7+Q9ES14); details: Compound concentration 10.0 uM
[43] = molecular target: Alpha-1D adrenergic receptor (Homo sapiens) (UniProt P25100); details: Compound concentration 10.0 uM

Sequence of Receptor-type tyrosine-protein kinase FLT3 (Homo sapiens), P36888 [UNDEFINED MUTATION] (P36888 whole entry, looked up, change not shown): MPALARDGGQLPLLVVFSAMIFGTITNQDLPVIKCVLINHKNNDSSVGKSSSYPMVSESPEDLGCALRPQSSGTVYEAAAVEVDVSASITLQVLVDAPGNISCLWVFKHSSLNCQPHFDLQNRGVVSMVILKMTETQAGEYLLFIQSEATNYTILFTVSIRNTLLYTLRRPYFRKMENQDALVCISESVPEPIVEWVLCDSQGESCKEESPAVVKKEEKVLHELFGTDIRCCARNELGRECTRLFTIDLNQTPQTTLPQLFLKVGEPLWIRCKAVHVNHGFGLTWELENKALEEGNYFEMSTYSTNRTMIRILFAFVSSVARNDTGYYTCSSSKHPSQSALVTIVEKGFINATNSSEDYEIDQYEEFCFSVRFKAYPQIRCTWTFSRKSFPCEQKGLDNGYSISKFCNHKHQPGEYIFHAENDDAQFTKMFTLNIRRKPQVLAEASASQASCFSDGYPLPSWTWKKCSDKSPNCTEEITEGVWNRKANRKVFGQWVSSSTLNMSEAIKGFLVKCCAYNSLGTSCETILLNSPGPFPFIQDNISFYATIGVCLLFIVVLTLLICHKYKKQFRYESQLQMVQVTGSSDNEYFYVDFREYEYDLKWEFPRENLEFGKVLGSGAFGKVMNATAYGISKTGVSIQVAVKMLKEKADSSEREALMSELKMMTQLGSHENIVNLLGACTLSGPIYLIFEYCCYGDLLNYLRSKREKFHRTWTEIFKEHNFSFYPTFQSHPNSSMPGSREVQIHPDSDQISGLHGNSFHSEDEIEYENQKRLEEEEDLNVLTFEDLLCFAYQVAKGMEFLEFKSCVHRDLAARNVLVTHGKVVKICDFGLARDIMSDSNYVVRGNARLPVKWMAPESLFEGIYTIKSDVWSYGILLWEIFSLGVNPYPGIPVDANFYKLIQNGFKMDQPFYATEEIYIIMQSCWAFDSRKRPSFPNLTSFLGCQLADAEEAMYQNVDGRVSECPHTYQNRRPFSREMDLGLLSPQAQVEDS
Sequence of Tyrosine-protein kinase HCK (Homo sapiens) (P08631 2-526 limits assumed): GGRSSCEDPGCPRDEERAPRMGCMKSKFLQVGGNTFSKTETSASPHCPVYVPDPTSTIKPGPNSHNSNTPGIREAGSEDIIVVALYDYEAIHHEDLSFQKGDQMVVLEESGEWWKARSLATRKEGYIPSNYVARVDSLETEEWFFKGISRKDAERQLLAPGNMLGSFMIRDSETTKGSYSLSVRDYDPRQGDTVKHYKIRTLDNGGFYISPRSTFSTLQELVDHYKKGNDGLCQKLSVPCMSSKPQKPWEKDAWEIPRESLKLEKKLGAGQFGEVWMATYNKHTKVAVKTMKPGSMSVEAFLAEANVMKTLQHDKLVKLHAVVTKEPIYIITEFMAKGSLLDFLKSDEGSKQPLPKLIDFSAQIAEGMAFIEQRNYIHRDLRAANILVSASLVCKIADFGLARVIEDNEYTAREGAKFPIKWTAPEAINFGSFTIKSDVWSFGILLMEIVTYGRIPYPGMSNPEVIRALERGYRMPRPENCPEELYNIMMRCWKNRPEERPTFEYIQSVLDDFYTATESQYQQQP
Sequence of Phosphatidylinositol 4,5-bisphosphate 3-kinase catalytic subunit alpha isoform (Homo sapiens) (P42336 whole entry, canonical isoform): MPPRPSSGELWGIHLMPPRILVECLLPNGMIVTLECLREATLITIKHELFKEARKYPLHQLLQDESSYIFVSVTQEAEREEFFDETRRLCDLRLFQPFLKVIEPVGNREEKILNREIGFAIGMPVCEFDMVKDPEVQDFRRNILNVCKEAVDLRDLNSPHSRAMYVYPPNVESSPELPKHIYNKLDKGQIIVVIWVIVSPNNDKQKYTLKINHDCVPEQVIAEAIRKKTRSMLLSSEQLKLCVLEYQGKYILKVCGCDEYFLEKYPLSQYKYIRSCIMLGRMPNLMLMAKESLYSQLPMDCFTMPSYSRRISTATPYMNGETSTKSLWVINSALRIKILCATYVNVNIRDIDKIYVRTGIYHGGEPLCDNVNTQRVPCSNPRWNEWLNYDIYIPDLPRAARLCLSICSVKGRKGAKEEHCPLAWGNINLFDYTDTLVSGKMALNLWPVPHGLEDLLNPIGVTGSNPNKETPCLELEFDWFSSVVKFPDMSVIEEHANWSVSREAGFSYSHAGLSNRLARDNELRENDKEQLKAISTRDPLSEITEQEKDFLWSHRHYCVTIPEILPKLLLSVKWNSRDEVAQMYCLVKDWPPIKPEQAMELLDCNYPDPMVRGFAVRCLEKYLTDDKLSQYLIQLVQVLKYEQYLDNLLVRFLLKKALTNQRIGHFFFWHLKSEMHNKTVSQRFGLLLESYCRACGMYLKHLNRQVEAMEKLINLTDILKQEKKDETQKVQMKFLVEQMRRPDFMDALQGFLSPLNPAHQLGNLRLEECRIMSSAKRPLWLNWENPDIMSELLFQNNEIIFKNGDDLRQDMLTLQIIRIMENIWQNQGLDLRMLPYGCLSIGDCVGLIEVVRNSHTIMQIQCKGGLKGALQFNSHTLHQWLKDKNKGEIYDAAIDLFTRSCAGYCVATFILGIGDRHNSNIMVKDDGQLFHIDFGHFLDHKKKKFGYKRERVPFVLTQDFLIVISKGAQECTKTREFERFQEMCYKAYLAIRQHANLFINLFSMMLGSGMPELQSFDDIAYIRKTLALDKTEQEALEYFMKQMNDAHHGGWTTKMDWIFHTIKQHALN
Sequence of Mast/stem cell growth factor receptor Kit (Homo sapiens), P10721 [V559D,T670I] (P10721 whole entry V559D/T670I): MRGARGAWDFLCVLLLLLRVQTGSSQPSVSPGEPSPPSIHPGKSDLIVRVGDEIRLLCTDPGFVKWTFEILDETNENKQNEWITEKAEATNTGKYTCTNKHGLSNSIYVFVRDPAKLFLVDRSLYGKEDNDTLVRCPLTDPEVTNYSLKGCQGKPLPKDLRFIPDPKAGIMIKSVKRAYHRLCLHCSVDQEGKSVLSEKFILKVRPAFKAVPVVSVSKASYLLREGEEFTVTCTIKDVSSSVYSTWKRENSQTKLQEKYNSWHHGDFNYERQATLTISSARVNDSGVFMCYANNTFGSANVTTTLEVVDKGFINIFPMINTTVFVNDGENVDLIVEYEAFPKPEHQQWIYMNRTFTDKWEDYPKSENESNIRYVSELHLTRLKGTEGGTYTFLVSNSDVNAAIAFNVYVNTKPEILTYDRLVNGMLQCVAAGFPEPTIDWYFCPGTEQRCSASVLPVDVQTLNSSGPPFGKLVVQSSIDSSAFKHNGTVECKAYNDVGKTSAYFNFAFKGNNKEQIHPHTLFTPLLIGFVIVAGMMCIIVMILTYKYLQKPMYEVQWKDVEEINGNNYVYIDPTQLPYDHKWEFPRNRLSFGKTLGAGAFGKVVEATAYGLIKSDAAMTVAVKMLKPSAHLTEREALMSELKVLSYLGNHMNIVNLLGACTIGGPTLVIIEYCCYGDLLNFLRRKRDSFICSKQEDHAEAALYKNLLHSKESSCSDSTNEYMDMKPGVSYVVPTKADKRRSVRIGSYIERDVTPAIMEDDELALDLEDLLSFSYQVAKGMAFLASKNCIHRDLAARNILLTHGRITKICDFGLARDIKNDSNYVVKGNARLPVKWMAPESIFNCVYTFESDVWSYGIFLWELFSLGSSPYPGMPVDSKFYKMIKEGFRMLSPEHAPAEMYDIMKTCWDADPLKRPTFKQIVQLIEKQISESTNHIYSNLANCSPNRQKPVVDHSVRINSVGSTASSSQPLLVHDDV
Sequence of Activated CDC42 kinase 1 (Homo sapiens) (Q07912 whole entry, looked up): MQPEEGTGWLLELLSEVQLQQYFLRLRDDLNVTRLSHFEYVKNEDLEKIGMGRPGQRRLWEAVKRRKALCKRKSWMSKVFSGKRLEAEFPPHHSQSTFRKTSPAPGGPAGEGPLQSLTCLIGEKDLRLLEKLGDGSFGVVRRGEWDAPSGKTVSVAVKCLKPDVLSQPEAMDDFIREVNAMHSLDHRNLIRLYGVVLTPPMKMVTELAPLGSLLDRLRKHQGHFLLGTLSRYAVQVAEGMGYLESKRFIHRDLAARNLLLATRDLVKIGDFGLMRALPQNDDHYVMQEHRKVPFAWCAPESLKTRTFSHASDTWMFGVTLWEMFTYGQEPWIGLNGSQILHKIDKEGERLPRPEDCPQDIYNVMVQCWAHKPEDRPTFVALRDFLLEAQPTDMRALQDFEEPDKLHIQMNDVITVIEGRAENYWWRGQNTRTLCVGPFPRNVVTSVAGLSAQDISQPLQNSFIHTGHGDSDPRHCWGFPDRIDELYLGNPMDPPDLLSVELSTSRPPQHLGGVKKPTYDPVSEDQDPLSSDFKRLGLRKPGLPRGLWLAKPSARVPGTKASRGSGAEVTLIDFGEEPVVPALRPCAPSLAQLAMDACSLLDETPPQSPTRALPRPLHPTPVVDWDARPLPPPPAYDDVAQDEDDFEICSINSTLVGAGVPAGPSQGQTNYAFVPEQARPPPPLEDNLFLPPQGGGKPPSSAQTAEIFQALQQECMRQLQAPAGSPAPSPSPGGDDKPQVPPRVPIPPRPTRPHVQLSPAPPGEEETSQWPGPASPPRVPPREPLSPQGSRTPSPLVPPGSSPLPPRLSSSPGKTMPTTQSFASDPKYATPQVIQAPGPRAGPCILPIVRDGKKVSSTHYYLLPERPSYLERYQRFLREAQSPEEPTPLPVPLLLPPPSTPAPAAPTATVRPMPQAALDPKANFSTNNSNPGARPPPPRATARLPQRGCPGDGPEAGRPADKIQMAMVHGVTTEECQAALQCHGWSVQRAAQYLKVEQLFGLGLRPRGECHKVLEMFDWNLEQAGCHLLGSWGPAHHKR
Sequence of Mu-type opioid receptor (Homo sapiens) (P35372 whole entry): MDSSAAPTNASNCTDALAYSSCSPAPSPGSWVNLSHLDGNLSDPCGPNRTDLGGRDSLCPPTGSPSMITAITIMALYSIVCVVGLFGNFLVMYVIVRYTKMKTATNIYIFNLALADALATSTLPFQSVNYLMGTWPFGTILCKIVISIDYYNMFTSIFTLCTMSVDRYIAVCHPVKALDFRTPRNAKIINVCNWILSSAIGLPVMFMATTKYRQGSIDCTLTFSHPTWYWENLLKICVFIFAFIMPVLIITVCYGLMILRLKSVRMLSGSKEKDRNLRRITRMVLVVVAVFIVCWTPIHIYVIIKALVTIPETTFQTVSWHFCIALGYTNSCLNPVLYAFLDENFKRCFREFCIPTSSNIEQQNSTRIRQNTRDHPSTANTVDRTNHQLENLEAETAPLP

N#Cc1ccc(Nc2ccc3[nH]c(=O)[nH]c3c2)c(Cl)c1
inactive: residual activity [1] 92% | residual activity [2] 100% | residual activity [3] 100% | residual activity [4] 81% | residual activity [5] 100% | residual activity [6] 100% | residual activity [7] 78% | residual activity [8] 100% | residual activity [9] 100% | residual activity [10] 100% | residual activity [11] 70% | residual activity [12] 100% | residual activity [13] 100% | residual activity [14] 100% | residual activity [15] 100% | residual activity [16] 100% | residual activity [17] 99% | residual activity [18] 100% | residual activity [19] 96% | residual activity [20] 80% | residual activity [21] 100% | residual activity [22] 79% | residual activity [23] 100% | residual activity [24] 99% | residual activity [25] 77% | residual activity [26] 96% | residual activity [27] 87% | residual activity [28] 99% | residual activity [29] 68% | residual activity [30] 89% | residual activity [31] 84% | residual activity [32] 100% | residual activity [33] 93% | residual activity [34] 100% | residual activity [35] 100% | residual activity [36] 96% | residual activity [37] 90% | residual activity [38] 65% | residual activity [39] 99% | inhibition [40] 0.37% | inhibition [41] 13.1% | inhibition [42] 10.2% | inhibition [43] -5.71%

O=C1CCc2cc(Nc3cc(OC4CCOCC4)c([N+](=O)[O-])cc3Cl)ccc2N1
inactive: residual activity [1] 88% | residual activity [2] 98% | residual activity [3] 100% | residual activity [4] 100% | residual activity [5] 96% | residual activity [6] 100% | residual activity [7] 68% | residual activity [8] 100% | residual activity [9] 100% | residual activity [10] 100% | residual activity [11] 96% | residual activity [12] 88% | residual activity [13] 93% | residual activity [14] 100% | residual activity [15] 78% | residual activity [16] 100% | residual activity [17] 100% | residual activity [18] 94% | residual activity [19] 92% | residual activity [20] 69% | residual activity [21] 100% | residual activity [22] 96% | residual activity [23] 100% | residual activity [24] 89% | residual activity [25] 79% | residual activity [26] 96% | residual activity [27] 86% | residual activity [28] 100% | residual activity [29] 98% | residual activity [30] 89% | residual activity [31] 77% | residual activity [32] 100% | residual activity [33] 97% | residual activity [34] 100% | residual activity [35] 100% | residual activity [36] 81% | residual activity [37] 100% | residual activity [38] 60% | residual activity [39] 99% | inhibition [40] 1.31% | inhibition [41] -0.04% | inhibition [42] 29.2% | inhibition [43] 3.49%
